The values that follow come from EP1534672B1, “RETINOL DERIVATIVES, THEIR USE IN THE TREATMENT OF CANCER AND FOR POTENTIATING THE EFFICACY OF OTHER CYTOTOXIC AGENTS” (priority 2002, dated 2004).

Where “and” joins values, the source holds several entries; their conditions need not be identical. Equal entries are not always repeated. Structures can show the parent of a compound that is named as a salt. Where two headings read alike, the source gives them in different places. Marks after values point to notes of the source that are not given here.

The test concerns Human Breast Adenocarcinoma Cell Line MDA-MB-231. The test can be described thus: Drug cytotoxicity testing (viable cell count, trypan blue exclusion, cell growth inhibition). It is filed as cell-based. Particulars: for IC50: calculated from three concentrations, read-out: IC50 mol/L (a). As for the experimental part:
MDA-MB-231 cells were propagated in MEM culture medium with 2 mM L-glutamine, 10% heat-inactivated fetal bovine serum (FBS) and antibiotics. DU 145 cells were cultured in MEM culture medium containing 2 mM L-glutamine, 1 mM sodium pyruvate, 10% FBS and antibiotics. SKOV-3 cells were cultured in McCoy's 5A culture medium, supplemented with 1,5 mM L-glutamine, 10% FBS and antibiotics. A549 cells were cultured in Ham's F-12 culture medium with 1 mM L-glutamine, 10% FBS and antibiotics. All media and supplements were purchased from Sigma-Aldrich (St.Louis, MO, USA). Cell propagation of all lines was carried out in Falcon™ 25 cm^2 cultivation flasks (Becton Dickinson Labware).
Drug cytotoxicity testing was carried out with using Falcon™ 96-well cultivation plates for adherent cells (Becton Dickinson Labware). These plates were seeded by cells either at 12 × 10^3 MDA-MB-231 cells/well, or at 12 × 10^3 DU 145 cells/well, or at 14 × 10^3 SKOV-3 cells/well, or at 10 × 10^3 A549 cells/well in a volume of 200 µL/well.
The cell cultures in cultivation plates were allowed to adhere for 24 hour of incubation. On day 1 after cell seeding, 2 µL solutions of the drugs to be tested in medium with 5% FBS was added to the cultures. In the control cultures, 2 µL of medium with 5% FBS was added as solvent control. The cells were incubated for 2 consecutive days. At the end of the incubation period adherent cells were detached by trypsinization and the number of viable cells was counted using trypan blue exclusion test and a hemocytometer. All data were derived from an average of three determinations each in six replicates. The results were expressed as mean cell number ± SE and the differences between control and test series evaluated by means of Student's t-test. The drug cytotoxicity was evaluated based on the extent of cell growth inhibition. The cell growth inhibition of the tested drugs was calculated as follows: Cell growth inhibition,% = (Control-TestSeries)/(Control) × 100 [formula]
In the case of comparative evaluation of cytotoxicity of the inventive compounds themselves and the formulation related to consecutive dilutions of their initial solutions before adding to the cultures, 2 µL solutions of the drugs to be tested in medium with 5% FBS, in normal saline and in saline with 2,3 mM CaCl2 were added to the cultures. In control cultures, 2 µL of medium with 5% FBS, normal saline and saline with 2,3 mM CaCl2 were added as solvent controls (negative controls). […] Therefore an average of negative controls was calculated. […] Therefore an average of positive controls was calculated (for each antibiotic).

Setting [1] is: Homo sapiens, MDA-MB-231, 48 h, compound alone, final concentration 10^-8 mol/L, working solutions in MEM with 5% FBS, two days, read-out: cell growth inhibition.
[2] abbreviates: Homo sapiens, MDA-MB-231, 48 h, compound alone, final concentration 10^-9 mol/L, working solutions in MEM with 5% FBS, two days, read-out: cell growth inhibition.
Where [3] appears, read: compound alone, final concentration 10^-7 mol/L, working solutions in MEM with 5% FBS, two days.
The mark [4] stands for this setting: compound alone, final concentration 10^-8 mol/L, working solutions in MEM with 5% FBS, two days.
[5] abbreviates: compound alone, final concentration 10^-9 mol/L, working solutions in MEM with 5% FBS, two days.
Where [6] appears, read: Homo sapiens, MDA-MB-231, 48 h, compound alone, final concentration 10^-7 mol/L, working solutions in MEM with 5% FBS, two days, read-out: cell growth inhibition.
Setting [7] is: cytotoxic drug alone 10^-7 mol/L, average of positive controls in medium with 5% FBS, normal saline and saline with 2,3 mM CaCl2, hydrochloride.
Where [8] appears, read: cytotoxic drug alone 10^-8 mol/L, average of positive controls in medium with 5% FBS, normal saline and saline with 2,3 mM CaCl2, hydrochloride.
Where [9] appears, read: cytotoxic drug alone 10^-9 mol/L, average of positive controls in medium with 5% FBS, normal saline and saline with 2,3 mM CaCl2, hydrochloride.

As usually defined, the inhibition is how much of the control response was suppressed. For `CC1=C(/C=C/C(C)=C/C=C/C(C)=C/C(=O)N[C@@H](CS(=O)(=O)O)C(=O)OC(C)C)C(C)(C)CCC1` [compound I-1c, N-(all-trans-retinoyl)-Lwcysteic acid isopropyl ester], the inhibition at 0.01 µM under setting [1] stood at 46.9%. For the same compound, the inhibition at 0.001 µM under setting [2] was determined as 40.6%. The “number of viable cells” value was 28.9 ± 1.52 × 10^3 under setting [3], 30.4 ± 1.79 × 10^3 under setting [4] and 34.0 ± 2.13 × 10^3 under setting [5].

On to `CC1=C(/C=C/C(C)=C/C=C/C(C)=C\C(=O)N[C@@H](CS(=O)(=O)O)C(=O)OC(C)C)C(C)(C)CCC1` [compound II-1c, N-(13-cis-retinoyl)-L-cysteic acid isopropyl ester], for which the inhibition at 0.1 µM under setting [6] is 50.4%. The inhibition at 0.01 µM under setting [1] was 47%. The inhibition at 0.001 µM under setting [2] turned out to be 42.6%. Also, under setting [5], the “number of viable cells” value is 33.6 ± 2.75 × 10^3.

On to `CCCCOC(=O)[C@H](CS(=O)(=O)O)NC(=O)\C=C(C)/C=C/C=C(C)/C=C/C1=C(C)CCCC1(C)C` [compound II-1e, N-(13-cis-retinoyl)-L-cysteic acid butyl ester], for which, under setting [1], the inhibition at 0.01 µM was 50.7%. Also, the inhibition at 0.001 µM under setting [2] was 45.6%. The “number of viable cells” value under setting [5] is given as 30.9 ± 1.82 × 10^3.

Consider `CCOC(=O)[C@H](CS(=O)(=O)O)NC(=O)/C=C(C)/C=C/C=C(C)/C=C/C1=C(C)CCCC1(C)C` [compound I-1b, N-(all-trans-retlnoyl)-L-cysteic acid ethyl ester], for which, under setting [6], the inhibition at 0.1 µM was found to be 46.7%. Moreover, under setting [1], the inhibition at 0.01 µM was 44.2%. Under setting [2], the inhibition at 0.001 µM is 39.2%. Also, the “number of viable cells” value reads like this: under setting [3], 30.5 ± 1.82 × 10^3; under setting [4], 31.9 ± 2.16 × 10^3; under setting [5], 34.8 ± 2.41 × 10^3.

For `CCCOC(=O)[C@H](CS(=O)(=O)O)NC(=O)\C=C(C)/C=C/C=C(C)/C=C/C1=C(C)CCCC1(C)C` [compound II-1d, N-(13-cis-retinoyl)-L-cysteic acid propyl ester], the inhibition at 0.1 µM under setting [6] is 53.7%. The inhibition at 0.01 µM under setting [1] turned out to be 50.4%. The inhibition at 0.001 µM under setting [2] turned out to be 44.9%. For the same compound, the “number of viable cells” value reads like this: under setting [3], 26.3 ± 1.86 × 10^3; under setting [4], 28.2 ± 1.29 × 10^3; under setting [5], 31.3 ± 2.68 × 10^3.

As to `COc1cccc2c1C(=O)c1c(O)c3c(c(O)c1C2=O)C[C@@](O)(C(=O)CO)C[C@@H]3O[C@H]1C[C@H](N)[C@H](O)[C@H](C)O1` [Doxorubicin, (8S,10S)-10-[(3-amino-2,3,6-trideoxy-α-L-lyxo-hexopyranosyl)oxy]-8-glycolyl-7,8,9,10-tetrahydro-6,8,11-trihydroxy-1-methoxy-5,12-naphtacenedione hydrochloride, reference compound], the IC50 reads like this: (Homo sapiens, MDA-MB-231, as concentration of cytotoxic drug, alone or in formulation at molar ratio 1:6, medium with 5% FBS) 76 nM; (Homo sapiens, MDA-MB-231, cytotoxic drug alone, average of positive controls) 62 nM; (cytotoxic drug alone, average of positive controls, hydrochloride) 64 nM. For the same compound, the inhibition at 0.1 µM amounted to 53.6% (Homo sapiens, MDA-MB-231, cytotoxic drug 10^-7 mol/L (100 nM), alone or in formulation at molar ratio 1:6, working solutions in medium with 5% FBS, read-out: Cell Growth Inhibition, %); 55.4% (Homo sapiens, MDA-MB-231, cytotoxic drug alone 10^-7 mol/L, average of positive controls in medium with 5% FBS, normal saline and saline with 2,3 mM CaCl2, read-out: Cell Growth Inhibition, %). The inhibition at 0.01 µM worked out at 26.4% (Homo sapiens, MDA-MB-231, cytotoxic drug 10^-8 mol/L, alone or in formulation at molar ratio 1:6, working solutions in medium with 5% FBS, read-out: Cell Growth Inhibition, %); 29.4% (Homo sapiens, MDA-MB-231, cytotoxic drug alone 10^-8 mol/L, average of positive controls in medium with 5% FBS, normal saline and saline with 2,3 mM CaCl2, read-out: Cell Growth Inhibition, %). Further, the inhibition at 0.001 µM reads like this: (Homo sapiens, MDA-MB-231, cytotoxic drug 10^-9 mol/L, alone or in formulation at molar ratio 1:6, working solutions in medium with 5% FBS, read-out: Cell Growth Inhibition, %) 13.8%; (Homo sapiens, MDA-MB-231, cytotoxic drug alone 10^-9 mol/L, average of positive controls in medium with 5% FBS, normal saline and saline with 2,3 mM CaCl2, read-out: Cell Growth Inhibition, %) 19.4%. The “Tumor Cell Number, × 10^3” value is 26.2 ± 1.29 × 10^3 (cytotoxic drug 10^-7 mol/L (100 nM), alone or in formulation at molar ratio 1:6, working solutions in medium with 5% FBS, hydrochloride); 23.6 ± 1.02 × 10^3 (cytotoxic drug 10^-7 mol/L (100 nM), alone or in formulation at molar ratio 1:6, working solutions in medium with 5% FBS, listed as doxorubicin, hydrochloride); 41.0 ± 1.50 × 10^3 (cytotoxic drug 10^-8 mol/L, alone or in formulation at molar ratio 1:6, working solutions in medium with 5% FBS); 48.0 ± 1.85 × 10^3 (cytotoxic drug 10^-9 mol/L, alone or in formulation at molar ratio 1:6, working solutions in medium with 5% FBS); 25.5±0.71 × 10^3 and 25.2±1.56 × 10^3 under setting [7]; 40.4±1.65 × 10^3 and 41.0±0.96 × 10^3 under setting [8]. Besides, the “Tumor Cell Number, × 10^3” value under setting [9] was 46.1±2.07 × 10^3 and 45.6±1.38 × 10^3. Also, the “Cell Growth Inhibition, %” value (cytotoxic drug 10^-7 mol/L (100 nM), alone or in formulation at molar ratio 1:6, working solutions in medium with 5% FBS, hydrochloride, 0.1 µM) is reported as 53.0* %; the “Cell Growth Inhibition, %” value under setting [7] is given as 55.3* %; the “Cell Growth Inhibition, %” value under setting [8] is on record as 27.3 * %; the “Cell Growth Inhibition, %” value under setting [9] is recorded as 19.1* %.

Turning to `CCOC(=O)[C@H](CS(=O)(=O)O)NC(=O)\C=C(C)/C=C/C=C(C)/C=C/C1=C(C)CCCC1(C)C` [compound II-1b, N-(13-cis-retinoyl)-L-cysteic acid ethyl ester], the inhibition at 0.1 µM under setting [6] amounted to 49.1%. For the same compound, under setting [1], the inhibition at 0.01 µM came out at 46.3%. In addition, the inhibition at 0.001 µM under setting [2] worked out at 41.4%. For the same compound, the “number of viable cells” value is, setting by setting: under setting [3], 29.8 ± 1.70 × 10^3; under setting [4], 31.4 ± 1.94 × 10^3; under setting [5], 34.3 ± 1.88 × 10^3.
